{
  "source": "PubChem BioAssay AID328",
  "about": "(DTP/NCI, 2004)",
  "system": "BDF1 mice, P388 leukemia ip, median survival T/C",
  "test": "NCI In Vivo Anticancer Drug Screen. Data for tumor model P388 Leukemia (intraperitoneal) in B6D2F1 (BDF1) mice",
  "settings": "endpoint: median survival time, higher = longer survival",
  "outline": "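Survival ratio, drug arm over vehicle arm, in mice with a transplanted tumour.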",
  "key": {"[1]": {"settings": "dose: 100.0 mg/kg/injection, schedule: Q01DX009 (ip), vehicle: Klucel (hydroxypropylcellulose) (HPC)"}, "[2]": {"settings": "dose: 100.0 mg/kg/injection, schedule: Q04DX003 (ip), vehicle: Klucel (hydroxypropylcellulose) (HPC)"}, "[3]": {"settings": "dose: 200.0 mg/kg/injection, schedule: Q01DX009 (ip), vehicle: Klucel (hydroxypropylcellulose) (HPC)"}, "[4]": {"settings": "dose: 200.0 mg/kg/injection, schedule: Q04DX003 (ip), vehicle: Klucel (hydroxypropylcellulose) (HPC)"}, "[5]": {"settings": "dose: 400.0 mg/kg/injection, schedule: Q01DX009 (ip), vehicle: Klucel (hydroxypropylcellulose) (HPC)"}, "[6]": {"settings": "dose: 400.0 mg/kg/injection, schedule: Q04DX003 (ip), vehicle: Klucel (hydroxypropylcellulose) (HPC)"}, "[7]": {"settings": "dose: 25.0 mg/kg/injection, schedule: Q01DX009 (ip), vehicle: saline"}, "[8]": {"settings": "dose: 50.0 mg/kg/injection, schedule: Q01DX009 (ip), vehicle: saline"}, "[9]": {"settings": "dose: 200.0 mg/kg/injection, schedule: Q01DX009 (ip), vehicle: saline"}, "[10]": {"settings": "dose: 50.0 mg/kg/injection, schedule: Q01DX009 (ip), vehicle: saline with Tween-80"}, "[11]": {"settings": "dose: 100.0 mg/kg/injection, schedule: Q01DX009 (ip), vehicle: saline with Tween-80"}, "[12]": {"settings": "dose: 200.0 mg/kg/injection, schedule: Q01DX009 (ip), vehicle: saline with Tween-80"}},
  "note": "Toxic doses and inconclusive results are not listed.",
  "data": [
    {"smiles": "CC1SC(N)=NC1=O", "note": "(centres undefined)", "values": [
      {"measurement": "T/C", "setting": "[1]", "result": "100 % of control"},
      {"measurement": "T/C", "setting": "[2]", "result": "109 % of control"},
      {"measurement": "T/C", "setting": "[3]", "result": "109 % of control"},
      {"measurement": "T/C", "setting": "[4]", "result": "86 % of control"},
      {"measurement": "T/C", "setting": "[5]", "result": "100 % of control"},
      {"measurement": "T/C", "setting": "[6]", "result": "109 % of control"}
    ]},
    {"smiles": "CSC(=S)N/N=C(\\C)c1ccccn1", "values": [
      {"measurement": "T/C", "setting": "dose: 25.0 mg/kg/injection, schedule: Q04DX003 (ip), vehicle: saline with Tween-80", "result": "92 % of control"},
      {"measurement": "T/C", "setting": "dose: 50.0 mg/kg/injection, schedule: Q04DX003 (ip), vehicle: saline with Tween-80", "result": "99 % of control"},
      {"measurement": "T/C", "setting": "dose: 100.0 mg/kg/injection, schedule: Q04DX003 (ip), vehicle: saline with Tween-80", "result": "106 % of control"}
    ]},
    {"smiles": "CCOc1ccc2nc(/C=C\\c3cc4c5c(c3)CCCN5CCC4)ccc2c1", "values": [
      {"measurement": "T/C", "setting": "[1]", "result": "90 % of control"},
      {"measurement": "T/C", "setting": "[2]", "result": "100 % of control"},
      {"measurement": "T/C", "setting": "[3]", "result": "109 % of control"},
      {"measurement": "T/C", "setting": "[4]", "result": "100 % of control"},
      {"measurement": "T/C", "setting": "[5]", "result": "104 % of control"},
      {"measurement": "T/C", "setting": "[6]", "result": "95 % of control"}
    ]},
    {"smiles": "CC(=O)CC(C)(C)c1ccccc1", "values": [
      {"measurement": "T/C", "setting": "[7]", "result": "118 % of control"},
      {"measurement": "T/C", "setting": "[8]", "result": "111 % of control"},
      {"measurement": "T/C", "setting": "dose: 50.0 mg/kg/injection, schedule: Q04DX003 (ip), vehicle: saline", "result": "105 % of control"},
      {"measurement": "T/C", "setting": "dose: 100.0 mg/kg/injection, schedule: Q04DX003 (ip), vehicle: saline", "result": "105 % of control"},
      {"measurement": "T/C", "setting": "[9]", "result": "93 % of control"},
      {"measurement": "T/C", "setting": "dose: 200.0 mg/kg/injection, schedule: Q04DX003 (ip), vehicle: saline", "result": "121 % of control"},
      {"measurement": "T/C", "setting": "dose: 400.0 mg/kg/injection, schedule: Q04DX003 (ip), vehicle: saline", "result": "102 % of control"}
    ]},
    {"smiles": "C=CC(C)(C(=O)O)C(C)C", "note": "(centres undefined)", "values": [
      {"measurement": "T/C", "setting": "[10]", "result": "101 % of control"},
      {"measurement": "T/C", "setting": "[11]", "result": "100 % of control"},
      {"measurement": "T/C", "setting": "[12]", "result": "97 % of control"}
    ]},
    {"smiles": "NC(Cc1ccccc1Cl)C(=O)O", "note": "(centres undefined)", "values": [
      {"measurement": "T/C", "setting": "dose: 12.5 mg/kg/injection, schedule: Q01DX009 (ip), vehicle: saline with Tween-80", "result": "86 % of control"},
      {"measurement": "T/C", "setting": "dose: 25.0 mg/kg/injection, schedule: Q01DX009 (ip), vehicle: saline with Tween-80", "result": "101 % of control"},
      {"measurement": "T/C", "setting": "[7]", "result": "122 % of control"},
      {"measurement": "T/C", "setting": "[10]", "result": "107 % of control"},
      {"measurement": "T/C", "setting": "[8]", "result": "116 % of control"},
      {"measurement": "T/C", "setting": "[11]", "result": "102 % of control"},
      {"measurement": "T/C", "setting": "[12]", "result": "94 % of control"}
    ]},
    {"smiles": "CC[N+]1(CC)CCOC(=O)C1", "values": [
      {"measurement": "T/C", "setting": "dose: 100.0 mg/kg/injection, schedule: Q01DX009 (ip), vehicle: saline", "result": "92 % of control"},
      {"measurement": "T/C", "setting": "[9]", "result": "92 % of control"},
      {"measurement": "T/C", "setting": "dose: 400.0 mg/kg/injection, schedule: Q01DX009 (ip), vehicle: saline", "result": "92 % of control"}
    ]},
    {"smiles": "COC1CCC(C=O)C(C#N)(C#N)C1(C#N)C#N", "note": "(centres undefined)", "values": [
      {"measurement": "T/C", "setting": "dose: 50.0 mg/kg/injection, schedule: Q01DX001 (ip), vehicle: saline with Tween-80", "result": "112 % of control"},
      {"measurement": "T/C", "setting": "dose: 100.0 mg/kg/injection, schedule: Q01DX001 (ip), vehicle: saline with Tween-80", "result": "100 % of control"}
    ]},
    {"smiles": "CC(C)(C)c1cc(C(C)(C)c2ccccc2)cc(Cc2cc(C(C)(C)c3ccccc3)cc(C(C)(C)C)c2O)c1O", "values": [
      {"measurement": "T/C", "setting": "dose: 50.0 mg/kg/injection, schedule: Q01DX009 (ip), vehicle: saline + Tween-80 + alcohol", "result": "118 % of control"},
      {"measurement": "T/C", "setting": "[10]", "result": "96 % of control"},
      {"measurement": "T/C", "setting": "dose: 100.0 mg/kg/injection, schedule: Q01DX009 (ip), vehicle: saline + Tween-80 + alcohol", "result": "90 % of control"},
      {"measurement": "T/C", "setting": "[11]", "result": "100 % of control"},
      {"measurement": "T/C", "setting": "dose: 200.0 mg/kg/injection, schedule: Q01DX009 (ip), vehicle: saline + Tween-80 + alcohol", "result": "115 % of control"},
      {"measurement": "T/C", "setting": "[12]", "result": "124 % of control"},
      {"measurement": "T/C", "setting": "dose: 400.0 mg/kg/injection, schedule: Q01DX009 (ip), vehicle: saline + Tween-80 + alcohol", "result": "107 % of control"}
    ]},
    {"smiles": "CO[C@H]1C[C@](C)(O)Cc2cc3c(c(O)c21)C(=O)c1c(O)cc2c(c1C3=O)O[C@@H]1O[C@@]2(C)[C@H](O)[C@@H](N(C)C)[C@@H]1O", "values": [
      {"measurement": "T/C", "setting": "dose: 18.0 mg/kg/injection, schedule: Q04DX003 (ip), vehicle: lactate", "result": "228 % of control"},
      {"measurement": "T/C", "setting": "dose: 30.0 mg/kg/injection, schedule: Q04DX003 (ip), vehicle: lactate", "result": "271 % of control"},
      {"measurement": "T/C", "setting": "dose: 50.0 mg/kg/injection, schedule: Q04DX003 (ip), vehicle: lactate", "result": "107 % of control"}
    ]},
    {"smiles": "O=C(Nc1ccccc1O)/C(Cl)=C/Cl", "values": [
      {"measurement": "T/C", "setting": "dose: 22.0 mg/kg/injection, schedule: Q01DX009 (ip), vehicle: saline with Tween-80", "result": "122 % of control"},
      {"measurement": "T/C", "setting": "dose: 33.0 mg/kg/injection, schedule: Q01DX009 (ip), vehicle: saline with Tween-80", "result": "123 % of control"}
    ]}
  ]
}
